Reference: patent US11078213B2, “Thienopyrimidine compound, preparation method thereof, pharmaceutical composition and application thereof” (HONGYUN BIOTECH CO., LTD., priority 2016, dated 2021)

What was measured:
EML4-ALK-BaF3 = molecular target: T1, EML4-ALK-BaF3 (Homo sapiens, UniProt Q9UM73); assay: Growth inhibition of BaF3 cells stably transfected with kinase EML4-ALK (MTS); format: cell-based; conditions: compound concentration 3.3 μM, read-out: cell growth inhibition rate, EML4-ALK
T1 construct: EML4 (echinoderm microtubule associated protein like 4, Q9HC35) fusion partner; expressed in transfected cells; host or cells: BaF3; the other entry of the earlier key: EML4 (Q9HC35, Echinoderm microtubule-associated protein-like 4)
T1 sequence (Q9UM73 1058-1620 limits assumed): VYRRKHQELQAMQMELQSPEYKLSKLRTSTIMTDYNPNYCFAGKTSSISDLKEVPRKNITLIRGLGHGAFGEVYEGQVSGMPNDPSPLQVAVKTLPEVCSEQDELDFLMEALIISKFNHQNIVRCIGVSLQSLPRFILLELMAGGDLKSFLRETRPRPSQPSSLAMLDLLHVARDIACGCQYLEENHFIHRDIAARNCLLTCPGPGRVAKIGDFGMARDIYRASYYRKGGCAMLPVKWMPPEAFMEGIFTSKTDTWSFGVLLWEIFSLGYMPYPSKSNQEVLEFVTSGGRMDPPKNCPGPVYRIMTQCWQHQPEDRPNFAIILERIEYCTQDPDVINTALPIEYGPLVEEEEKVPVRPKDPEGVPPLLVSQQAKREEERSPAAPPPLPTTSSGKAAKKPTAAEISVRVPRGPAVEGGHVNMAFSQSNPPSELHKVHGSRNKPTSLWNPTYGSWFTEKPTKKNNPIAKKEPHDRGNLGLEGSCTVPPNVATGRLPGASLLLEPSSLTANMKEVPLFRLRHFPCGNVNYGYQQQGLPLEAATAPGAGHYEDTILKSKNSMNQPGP
Description: (§1) The specific test method is given as follows:
(§2) 2) Reagent: MTS reaction solution (containing 2 mg/mL of MTS [3-(4,5-dimethylthiazol-2-yl)-5-(3-carboxymethoxyphenyl)-2-(4-sulfophenyl)-2H-tetra zolium, inner Salt]; 100 µg/mL PES ([…])).

NPM-ALK-BaF3 = molecular target: T2, NPM-ALK-BaF3 (Homo sapiens, UniProt Q9UM73); assay: Growth inhibition of BaF3 cells stably transfected with kinase NPM-ALK (MTS); format: cell-based; conditions: compound concentration 3.3 μM, read-out: cell growth inhibition rate, NPM-ALK
T2 construct: NPM (nuclear phosphoprotein / nucleophosmin, NPM1, P06748) fusion partner; expressed in transfected cells; host or cells: BaF3; the other entry of the earlier key: NPM1 (P06748, Nucleophosmin)
T2 sequence (Q9UM73 with tags, fused parts or gaps): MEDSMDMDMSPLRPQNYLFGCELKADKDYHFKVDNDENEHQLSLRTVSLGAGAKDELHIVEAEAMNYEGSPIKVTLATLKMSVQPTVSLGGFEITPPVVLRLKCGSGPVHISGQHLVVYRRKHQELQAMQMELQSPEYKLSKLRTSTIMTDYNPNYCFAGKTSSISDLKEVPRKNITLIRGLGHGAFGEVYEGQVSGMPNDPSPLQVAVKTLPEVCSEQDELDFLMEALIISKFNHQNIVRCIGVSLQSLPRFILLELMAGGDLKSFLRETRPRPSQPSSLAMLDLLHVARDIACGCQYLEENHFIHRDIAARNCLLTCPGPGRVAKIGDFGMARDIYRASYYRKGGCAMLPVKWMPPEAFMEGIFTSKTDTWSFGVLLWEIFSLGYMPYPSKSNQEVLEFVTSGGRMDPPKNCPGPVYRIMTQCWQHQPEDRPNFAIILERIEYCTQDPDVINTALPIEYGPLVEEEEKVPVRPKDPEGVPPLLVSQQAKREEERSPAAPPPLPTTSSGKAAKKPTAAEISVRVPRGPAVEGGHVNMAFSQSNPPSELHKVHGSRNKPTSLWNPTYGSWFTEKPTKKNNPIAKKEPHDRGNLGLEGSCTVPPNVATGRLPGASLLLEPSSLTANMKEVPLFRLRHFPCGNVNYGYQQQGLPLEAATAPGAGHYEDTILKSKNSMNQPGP
Description: as §1, §2

Row | Compound | inhibition at 3.3 µM (EML4-ALK-BaF3) [%] | inhibition at 3.3 µM (NPM-ALK-BaF3) [%]
1 | COc1cc2c(cc1Nc1nc(Nc3ccccc3S(C)(=O)=O)c3sccc3n1)N(C(=O)CN(C)C)CC2 [IA-1] | 94.9 | 87.6
2 | COc1cc(N2CCN(C)CC2)ccc1Nc1nc(Nc2ccccc2S(C)(=O)=O)c2sccc2n1 [IA-4] | 99.6 | 86
3 | COC(=O)c1cccc(Nc2nc(Nc3cc(C)c(C4CCN(C)CC4)cc3OC(C)C)nc3ccsc23)c1 [ID-5] | > 99 | 93.9
4 | COC(=O)c1cccc(Nc2nc(Nc3cc(C)c(C4CCN(C)CC4)cc3OC)nc3ccsc23)c1 [ID-6] | 99.9 | -24.1
5 | COC(=O)c1ccccc1Nc1nc(Nc2ccc(N3CCC(O)CC3)cc2)nc2ccsc12 [IE-2] | 98.2 | 50.5
6 | COC(=O)c1ccccc1Nc1nc(Nc2ccc(N3CCN(C)CC3)cc2OC)nc2ccsc12 [IE-3] | 96.7 | 85.5
7 | COC(=O)c1ccccc1Nc1nc(Nc2ccc(N3CCC(N4CCN(C)CC4)CC3)cc2)nc2ccsc12 [IE-4] | 96.7 | 93.6
8 | CCOc1cc(N2CCN(C)CC2)ccc1Nc1nc(Nc2ccccc2C(=O)OC)c2sccc2n1 [IE-6] | 98.5 | 0
9 | COC(=O)c1ccccc1Nc1nc(Nc2cc(C)c(C3CCN(C)CC3)cc2OC(C)C)nc2ccsc12 [IE-7] | 98.8 | 86.1
10 | COC(=O)c1ccccc1Nc1nc(Nc2cc(C)c(C3CCN(C)CC3)cc2OC)nc2ccsc12 [IE-8] | 98 | 84.2
11 | CNC(=O)c1cccc(F)c1Nc1nc(Nc2cc3c(cc2OC)CCN3C(=O)CN(C)C)nc2ccsc12 [IF-1] | > 99 | 6.16
12 | CNC(=O)c1cccc(F)c1Nc1nc(Nc2ccc(N3CCC(N4CCN(C)CC4)CC3)cc2OC)nc2ccsc12 [IF-2] | 3.41 | 2.77
13 | CNC(=O)c1cccc(F)c1Nc1nc(Nc2ccc(N3CCN(C)CC3)cc2OC)nc2ccsc12 [IF-3] | 87.1 | 12
14 | COc1cc(C2CCN(C)CC2)c(C)cc1Nc1nc(Nc2cccc(NS(C)(=O)=O)c2)c2sccc2n1 [IG-4] | 97.8 | 87.6
15 | COc1cc(C2CCN(C)CC2)c(C)cc1Nc1nc(Nc2ccccc2NS(C)(=O)=O)c2sccc2n1 [IH-5] | 98 | 84.2
16 | CNC(=O)c1ccccc1Nc1nc(Nc2ccc(N3CCC(N4CCN(C)CC4)CC3)cc2)nc2ccsc12 [II-6] | 92.9 | 36.9
17 | CNC(=O)c1ccccc1Nc1nc(Nc2cc(C)c(C3CCN(C)CC3)cc2OC(C)C)nc2ccsc12 [II-8] | > 99 | 86.6
18 | CNC(=O)c1ccccc1Nc1nc(Nc2cc(C)c(C3CCN(C)CC3)cc2OC)nc2ccsc12 [II-9] | 99.9 | 90

Row | Compound | inhibition at 3.3 µM (EML4-ALK-BaF3) [%] | inhibition at 3.3 µM (NPM-ALK-BaF3) [%]
19 | COc1cc2c(cc1Nc1nc(Nc3ccccc3[S+]([O-])C(C)C)c3sccc3n1)N(C(=O)CN(C)C)CC2 (stereo not shown) [IJ-1] | > 99 | 87.1
20 | COc1cc(N2CCC(N3CCN(C)CC3)CC2)ccc1Nc1nc(Nc2ccccc2[S+]([O-])C(C)C)c2sccc2n1 (stereo not shown) [IJ-2] | 99.3 | 87.7
21 | COc1cc(N2CCN(C)CC2)ccc1Nc1nc(Nc2ccccc2[S+]([O-])C(C)C)c2sccc2n1 (stereo not shown) [IJ-4] | > 99 | 88.8
22 | COc1cc(N2CCC(N(C)C)CC2)ccc1Nc1nc(Nc2ccccc2[S+]([O-])C(C)C)c2sccc2n1 (stereo not shown) [IJ-6] | > 99 | 81.9
23 | COc1cc2c(cc1Nc1nc(Nc3ccccc3P(C)(C)=O)c3sccc3n1)N(C(=O)CN(C)C)CC2 [IK-1] | > 99 | 86.7
24 | COc1cc(N2CCC(N(C)C)CC2)ccc1Nc1nc(Nc2ccccc2C(=O)NC(C)C)c2sccc2n1 [IP-3] | 99.1 | –
25 | COc1cc2c(cc1Nc1nc(Nc3ccccc3C(=O)N(C)C)c3sccc3n1)N(C(=O)CN(C)C)CC2 [IQ-1] | 96.9 | –
26 | COc1cc2c(cc1Nc1nc(Nc3ccccc3P(=O)(C(C)C)C(C)C)c3sccc3n1)N(C(=O)CN(C)C)CC2 [IR-1] | 97.5 | –
27 | COc1cc(N2CCN(C)CC2)ccc1Nc1nc(Nc2ccccc2P(=O)(C(C)C)C(C)C)c2sccc2n1 [IR-3] | 99.2 | –
28 | COc1cc(N2CCC(N(C)C)CC2)ccc1Nc1nc(Nc2ccccc2P(=O)(C(C)C)C(C)C)c2sccc2n1 [IR-5] | 98.3 | –
29 | CC(C)P(=O)(c1ccccc1Nc1nc(Nc2ccc(N3CCN(C)CC3)cc2)nc2ccsc12)C(C)C [IR-6] | 98.3 | –
30 | CCP(=O)(CC)c1ccccc1Nc1nc(Nc2cc3c(cc2OC)CCN3C(=O)CN(C)C)nc2ccsc12 [IS-1] | 98.7 | –
31 | CCP(=O)(CC)c1ccccc1Nc1nc(Nc2ccc(N3CCN(C)CC3)cc2)nc2ccsc12 [IS-5] | 103 | –
32 | COc1cc2c(cc1Nc1nc(OCc3ccccc3S(=O)(=O)C(C)C)c3sccc3n1)N(C(=O)CN(C)C)CC2 [IT-1] | 99.8 | –
33 | COc1cc(N2CCC(N3CCN(C)CC3)CC2)ccc1Nc1nc(OCc2ccccc2S(=O)(=O)C(C)C)c2sccc2n1 [IT-3] | 87.8 | –
34 | CC(C)S(=O)(=O)c1ccccc1COc1nc(Nc2ccc(N3CCOCC3)cc2)nc2ccsc12 [IT-4] | 100 | –
35 | COc1cc(N2CCC(N(C)C)CC2)ccc1Nc1nc(OCc2ccccc2S(=O)(=O)C(C)C)c2sccc2n1 [IT-5] | 101 | –

The next lines start with the values.

Row | inhibition at 3.3 µM (EML4-ALK-BaF3) [%] | inhibition at 3.3 µM (NPM-ALK-BaF3) [%] | Compound
36 | 98.9 | 87.6 | COc1cc(N2CCC(N3CCN(C)CC3)CC2)ccc1Nc1nc(Nc2ccccc2S(C)(=O)=O)c2sccc2n1 [IA-2]
37 | 99.8 | 92.7 | COc1cc(N2CCC(N3CCCC3)CC2)ccc1Nc1nc(Nc2ccccc2S(C)(=O)=O)c2sccc2n1 [IA-3]
38 | 82.9 | 94.4 | COc1cc(N2CCC(N3CCN(C)CC3)CC2)ccc1Nc1nc(Nc2ccccc2S(=O)(=O)C(C)C)c2sccc2n1 [IB-2]
39 | 98.5 | 90.7 | COC(=O)c1cccc(Nc2nc(Nc3ccc(N4CCC(N5CCCC5)CC4)cc3OC)nc3ccsc23)c1 [ID-4]
40 | 97 | 69.5 | COC(=O)c1ccccc1Nc1nc(Nc2ccc(N3CCC(N4CCN(C)CC4)CC3)cc2OC)nc2ccsc12 [IE-1]
41 | 99 | 87.6 | COC(=O)c1ccccc1Nc1nc(Nc2ccc(N3CCC(N4CCCC4)CC3)cc2OC)nc2ccsc12 [IE-5]
42 | > 99 | 10.9 | COc1cc(N2CCC(N3CCCC3)CC2)ccc1Nc1nc(Nc2cccc(NS(C)(=O)=O)c2)c2sccc2n1 [IG-5]
43 | 97.8 | 84.5 | COc1cc(N2CCC(N3CCCC3)CC2)ccc1Nc1nc(Nc2ccccc2NS(C)(=O)=O)c2sccc2n1 [IH-6]
44 | 98.5 | 79.5 | CNC(=O)c1ccccc1Nc1nc(Nc2ccc(N3CCC(N4CCCC4)CC3)cc2OC)nc2ccsc12 [II-7]
45 | 99.9 | 84.8 | COc1cc(N2CCC(N3CCCC3)CC2)ccc1Nc1nc(Nc2ccccc2[S+]([O-])C(C)C)c2sccc2n1 (stereo not shown) [IJ-3]
46 | 100 | 82.8 | COc1cc(N2CCC(N3CCN(C)CC3)CC2)ccc1Nc1nc(Nc2ccccc2P(C)(C)=O)c2sccc2n1 [IK-2]
47 | > 99 | 82.5 | COc1cc(N2CCC(N3CCCC3)CC2)ccc1Nc1nc(Nc2ccccc2P(C)(C)=O)c2sccc2n1 [IK-3]
48 | 96.3 | – | COc1cc(N2CCC(N3CCCC3)CC2)ccc1Nc1nc(Nc2ccccc2P(=O)(C(C)C)C(C)C)c2sccc2n1 [IR-2]
49 | 98.4 | – | COc1cc(N2CCC(N3CCN(C)CC3)CC2)ccc1Nc1nc(Nc2ccccc2P(=O)(C(C)C)C(C)C)c2sccc2n1 [IR-4]
50 | 98.2 | – | CCP(=O)(CC)c1ccccc1Nc1nc(Nc2ccc(N3CCC(N4CCCC4)CC3)cc2OC)nc2ccsc12 [IS-2]
51 | 101 | – | CCP(=O)(CC)c1ccccc1Nc1nc(Nc2ccc(N3CCC(N4CCN(C)CC4)CC3)cc2OC)nc2ccsc12 [IS-3]
52 | 103 | – | CCP(=O)(CC)c1ccccc1Nc1nc(Nc2ccc(N3CCN(C)CC3)cc2OC)nc2ccsc12 [IS-4]
53 | 99.5 | – | CCP(=O)(CC)c1ccccc1Nc1nc(Nc2ccc(N3CCC(N(C)C)CC3)cc2OC)nc2ccsc12 [IS-6]
